Legend:
[1] = in vivo; cited from earlier work
[2] = Pharmacokinetics of unmodified C-peptide in beagle dogs after a single S.C. dose; type: in vivo
Description: A pharmacokinetic (PK) study was conducted to determine the C-peptide PK profile with unmodified C-peptide in beagle dogs.
Methods: Two male and one female dog received S.C. the unmodified synthetic human C-peptide (0.5 mg/kg; 0.025 mL/kg) formulated in phosphate buffered saline (20 mg/mL). Dogs were bled by venipuncture and blood samples were collected at predetermined time points over 14 days. Plasma samples were obtained after centrifugation of the blood (3,000 rpm for 10 minutes) and stored at −80° C. until analysis. A CRO with Good Laboratory Practice (GLP) capabilities (MicroConstants, Inc.; San Diego, Calif.) performed the bioanalytical work. Plasma levels of C-peptide were measured by an enzyme-linked immunosorbant assay (ELISA) technique based on a commercial kit for human C-peptide determination (Mercodia; catalog number 10-1136-01) using the manufacturer's instructions. Results were expressed as C-peptide concentrations. For the PK analysis, the below quantitation level (BQL) was treated as zero and nominal time points were used for all calculations. PK parameters were determined by standard model independent methods based on the individual plasma concentration-time data for each animal using model 200 in WinNonlin Professional 5.2.1 (Pharsight Corp., Mountain View, Calif.).

[3] = Stability of C-peptide-XTEN in monkey plasma; type: in vitro ADME; details: 37° C., over 7 days, SDS PAGE / Western
Description: A fusion protein containing XTEN_AE864 fused to the N-terminus of C-peptide is incubated in monkey plasma and rat kidney lysate for up to 7 days at 37° C. Samples are withdrawn at time 0, Day 1 and Day 7 and analyzed by SDS PAGE followed by detection using Western analysis and detection with antibodies against C-peptide. […] The in vivo stability of the fusion protein is tested in plasma samples wherein the C-peptide_AE864 is immunoprecipitated and analyzed by SDS PAGE as described above.

[4] = Stability of C-peptide-XTEN in rat kidney lysate; type: in vitro ADME; details: 37° C., over 3 days, SDS PAGE / Western
Description: A fusion protein […] followed by detection using Western analysis and detection with antibodies against C-peptide. […] The in vivo stability of the fusion protein is tested in plasma samples wherein the C-peptide_AE864 is immunoprecipitated and analyzed by SDS PAGE as described above.

Molecule: Lispro
- peak time of effect [1]: around 30 minutes

Molecule: Regular insulin
- onset of action [1]: 30 to 60 min

Molecule: Glulisine
- peak time of effect [1]: around 30 minutes

Molecule: Glargine insulin
- duration of activity [1]: 24 h
- peak time of effect [1]: no peak effect

Molecule: Aspart
- peak time of effect [1]: around 30 minutes

Molecule: CC(C)C[C@H](NC(=O)[C@H](C)NC(=O)[C@H](CC(C)C)NC(=O)[C@@H]1CCCN1C(=O)[C@H](CCC(N)=O)NC(=O)[C@H](CC(C)C)NC(=O)[C@H](CO)NC(=O)CNC(=O)[C@H](C)NC(=O)CNC(=O)[C@@H]1CCCN1C(=O)CNC(=O)CNC(=O)CNC(=O)[C@H](CC(C)C)NC(=O)[C@H](CCC(=O)O)NC(=O)[C@@H](NC(=O)[C@H](CCC(N)=O)NC(=O)CNC(=O)[C@@H](NC(=O)[C@H](CCC(N)=O)NC(=O)[C@H](CC(C)C)NC(=O)[C@H](CC(=O)O)NC(=O)[C@H](CCC(=O)O)NC(=O)[C@H](C)NC(=O)[C@@H](N)CCC(=O)O)C(C)C)C(C)C)C(=O)N[C@@H](CCC(=O)O)C(=O)NCC(=O)N[C@@H](CO)C(=O)N[C@@H](CC(C)C)C(=O)N[C@@H](CCC(N)=O)C(=O)O [CP-AQ, human C-peptide]
- circulating levels of C-peptide below quantitation level (BQL) ([2]; dog, in vivo, sc): BQL within half a day
- tolerability (clinical abnormalities) ([2]; dogs, single S.C. dose 0.5 mg/kg): well tolerated

B1: AE864: XTEN polypeptide of 864 amino acid residues, SEQ ID NO:70 (protein)
chain: GSPAGSPTSTEEGTSESATPESGPGTSTEPSEGSAPGSPAGSPTSTEEGTSTEPSEGSAPGTSTEPSEGSAPGTSESATPESGPGSEPATSGSETPGSEPATSGSETPGSPAGSPTSTEEGTSESATPESGPGTSTEPSEGSAPGTSTEPSEGSAPGSPAGSPTSTEEGTSTEPSEGSAPGTSTEPSEGSAPGTSESATPESGPGTSTEPSEGSAPGTSESATPESGPGSEPATSGSETPGTSTEPSEGSAPGTSTEPSEGSAPGTSESATPESGPGTSESATPESGPGSPAGSPTSTEEGTSESATPESGPGSEPATSGSETPGTSESATPESGPGTSTEPSEGSAPGTSTEPSEGSAPGTSTEPSEGSAPGTSTEPSEGSAPGTSTEPSEGSAPGTSTEPSEGSAPGSPAGSPTSTEEGTSTEPSEGSAPGTSESATPESGPGSEPATSGSETPGTSESATPESGPGSEPATSGSETPGTSESATPESGPGTSTEPSEGSAPGTSESATPESGPGSPAGSPTSTEEGSPAGSPTSTEEGSPAGSPTSTEEGTSESATPESGPGTSTEPSEGSAPGTSESATPESGPGSEPATSGSETPGTSESATPESGPGSEPATSGSETPGTSESATPESGPGTSTEPSEGSAPGSPAGSPTSTEEGTSESATPESGPGSEPATSGSETPGTSESATPESGPGSPAGSPTSTEEGSPAGSPTSTEEGTSTEPSEGSAPGTSESATPESGPGTSESATPESGPGTSESATPESGPGSEPATSGSETPGSEPATSGSETPGSPAGSPTSTEEGTSTEPSEGSAPGTSTEPSEGSAPGSEPATSGSETPGTSESATPESGPGTSTEPSEGSAP
modifications: AE864 XTEN polypeptide
- degradation in monkey plasma [3]: negligible signs of degradation
- degradation in rat kidney lysate [4]: rapidly degraded
